From patent publication US20240317777A1, “NOVEL MACROCYCLIC AMINOPYRAZOLE COMPOUNDS AS CDK2 INHIBITORS” (Accutar Biotechnology Inc., priority 2023, published 2024)
Read-outs that look alike come from different tables or passages of the source.

How the values were obtained:
[1] = the molecule shown is the open-chain precursor, other bond
[2] = other bond

## CC(C)(C)n1nc([C@H]2CC[C@@H](OC(=O)Oc3ccc([N+](=O)[O-])cc3)C2)cc1Nc1cc(CCCCCN)nc(C(F)F)c1
[1]; 18-membered ring, DIEA, THF, 3.27 mM, 30.0 °C
  ring closure, isolated yield: 44.1%

## CC(C)(C)n1nc([C@H]2CC[C@@H](OC(=O)Oc3ccc([N+](=O)[O-])cc3)C2)cc1Nc1cc(OCCCCN)nc(C(F)F)c1
[1]; 18-membered ring, DIEA, THF, 1.11 mM, 25.0 °C
  ring closure, isolated yield: 65%

## CC(C)(C)n1nc([C@H]2CC[C@@H](OC(=O)Oc3ccc([N+](=O)[O-])cc3)C2)cc1Nc1cncc(OCC2CC(N)C2)n1 (stereo partly shown)
[1]; 18-membered ring, DIEA, DMSO, 2.3 mM, 100.0 °C
  ring closure, isolated yield: 38%

## CC(C)(C)n1nc([C@H]2CC[C@@H](OC(=O)Oc3ccc([N+](=O)[O-])cc3)C2)cc1Nc1cncc(OCCCCN)c1
[1]; 18-membered ring, DIEA, THF, 2.01 mM, 25.0 °C
  ring closure, isolated yield: 49.3%

## CC(C)(C)n1nc([C@H]2C[C@@H](F)[C@@H](OC(=O)Oc3ccc([N+](=O)[O-])cc3)C2)cc1Nc1ccnc(OCC2CC(N)C2)c1 (stereo partly shown)
[1]; 18-membered ring, DIEA, THF, 1.7 mM, 60.0 °C
  ring closure, isolated yield: 37%

## CC(C)(C)n1nc2cc1Nc1ccnc(c1)OC[C@H]1C[C@@H](C1)NC(=O)O[C@H]1C[C@@H]2C[C@H]1F
[2]; from CC(C)(C)n1nc([C@H]2C[C@@H](F)[C@@H](OC(=O)Oc3ccc([N+](=O)[O-])cc3)C2)cc1Nc1ccnc(OC[C@H]2C[C@H](N)C2)c1, DIEA, THF, 1.7 mM, 60.0 °C, 12.0 h
  ring closure, yield of all isomers: 37%

## CC(C)(C)n1nc2cc1Nc1cncc(n1)OC[C@H]1C[C@@H](C1)NC(=O)O[C@@H]1CC[C@H]2C1
[2]; from CC(C)(C)n1nc([C@H]2CC[C@@H](OC(=O)Oc3ccc([N+](=O)[O-])cc3)C2)cc1Nc1cncc(OC[C@H]2C[C@H](N)C2)n1, DIEA, DMSO, 2.3 mM, 100.0 °C, 12.0 h
  ring closure, yield of all isomers: 38%

## CC(C)(N)CCCOc1cc(Nc2cc([C@H]3CC[C@@H](OC(=O)Oc4ccc([N+](=O)[O-])cc4)C3)nn2C(C)(C)C)ccn1
[1]; 18-membered ring, DIEA/DMAP, THF, 1.81 mM, 50.0 °C
  ring closure, isolated yield: 88.8%

## CC(CC12CC(N)(C1)C2)Oc1cc(Nc2cc([C@H]3CC[C@@H](OC(=O)Oc4ccc([N+](=O)[O-])cc4)C3)nn2C(C)(C)C)cc(C(F)F)n1 (stereo partly shown)
[1]; 19-membered ring, DIEA, THF, 9.15 mM, 80.0 °C
  ring closure, isolated yield: 84.7%

## CC(N)CCCOc1cc(Nc2cc([C@H]3CC[C@@H](OC(=O)Oc4ccc([N+](=O)[O-])cc4)C3)nn2C(C)(C)C)ccn1 (stereo partly shown)
[1]; 18-membered ring, DIEA, THF, 2.06 mM, 30.0 °C
  ring closure, isolated yield: 98.5%

## CC1(C)CCCOc2cc(ccn2)Nc2cc(nn2C(C)(C)C)[C@H]2CC[C@H](C2)OC(=O)N1
[2]; from CC(C)(N)CCCOc1cc(Nc2cc([C@H]3CC[C@@H](OC(=O)Oc4ccc([N+](=O)[O-])cc4)C3)nn2C(C)(C)C)ccn1, DIPEA, DMAP, THF, 1.82 mM, 50.0 °C, 39.0 h
  ring closure, yield of all isomers: 88.8%

## CC1CC23CC(C2)(C3)NC(=O)O[C@@H]2CC[C@@H](C2)c2cc(n(C(C)(C)C)n2)Nc2cc(nc(C(F)F)c2)O1 (stereo partly shown)
[2]; from CC(CC12CC(N)(C1)C2)Oc1cc(Nc2cc([C@H]3CC[C@@H](OC(=O)Oc4ccc([N+](=O)[O-])cc4)C3)nn2C(C)(C)C)cc(C(F)F)n1, DIEA, THF, 9.15 mM, 80.0 °C, 2.0 h
  ring closure, yield of all isomers: 84.7%

## CC1CCCOc2cc(ccn2)Nc2cc(nn2C(C)(C)C)[C@H]2CC[C@H](C2)OC(=O)N1 (stereo partly shown)
[2]; from CC(N)CCCOc1cc(Nc2cc([C@H]3CC[C@@H](OC(=O)Oc4ccc([N+](=O)[O-])cc4)C3)nn2C(C)(C)C)ccn1, DIPEA, THF, 2.06 mM, 30.0 °C, 24.0 h
  ring closure, yield of all isomers: 98.5%

## CC1OCCCNC(=O)O[C@@H]2CC[C@@H](C2)c2cc(n(C(C)(C)C)n2)Nc2ccnc1c2 (stereo partly shown)
[2]; from CC(OCCCN)c1cc(Nc2cc([C@H]3CC[C@@H](OC(=O)Oc4ccc([N+](=O)[O-])cc4)C3)nn2C(C)(C)C)ccn1, DIEA, THF, 6.34 mM, 100.0 °C, 3.0 h
  ring closure, yield of all isomers: 87.5%

## C[C@@H](N)CC/C=C/c1cc(Nc2cc([C@H]3CC[C@@H](OC(=O)Oc4ccc([N+](=O)[O-])cc4)C3)nn2C(C)(C)C)ccn1
[1]; 18-membered ring, DIEA, THF, 1.46 mM, 70.0 °C
  ring closure, isolated yield: 98.6%

## C[C@@H](N)CCCCc1cc(Nc2cc([C@H]3CC[C@@H](OC(=O)Oc4ccc([N+](=O)[O-])cc4)C3)nn2C(C)(C)C)ccn1
[1]; 18-membered ring, DIEA, THF, 1.42 mM, 100.0 °C
  ring closure, isolated yield: 99.5%

## C[C@@H]1CC/C=C/c2cc(ccn2)Nc2cc(nn2C(C)(C)C)[C@H]2CC[C@H](C2)OC(=O)N1
[2]; from C[C@@H](N)CC/C=C/c1cc(Nc2cc([C@H]3CC[C@@H](OC(=O)Oc4ccc([N+](=O)[O-])cc4)C3)nn2C(C)(C)C)ccn1, DIEA, THF, 1.46 mM, 70.0 °C, 12.0 h
  ring closure, yield of all isomers: 98.6%

## C[C@@H]1CCCCc2cc(ccn2)Nc2cc(nn2C(C)(C)C)[C@H]2CC[C@H](C2)OC(=O)N1
[2]; from C[C@@H](N)CCCCc1cc(Nc2cc([C@H]3CC[C@@H](OC(=O)Oc4ccc([N+](=O)[O-])cc4)C3)nn2C(C)(C)C)ccn1, DIPEA, THF, 1.42 mM, 100.0 °C, 3.0 h
  ring closure, yield of all isomers: 99.5%

## C[C@@H]1NC(=O)O[C@@H]2CC[C@@H](C2)c2cc(n(C(C)(C)C)n2)Nc2ccnc(c2)OCCC1(F)F
[2]; from C[C@H](N)C(F)(F)CCOc1cc(Nc2cc([C@H]3CC[C@@H](OC(=O)Oc4ccc([N+](=O)[O-])cc4)C3)nn2C(C)(C)C)ccn1, DIEA, DMSO, 1.15 mM, 100.0 °C, 16.0 h
  ring closure, yield of all isomers: 87.3%

## C[C@@H]1NC(=O)O[C@@H]2CC[C@@H](C2)c2cc(n(C(C)(C)C)n2)Nc2ccnc(c2)OCCC1F (stereo partly shown)
[2]; from C[C@H](N)C(F)CCOc1cc(Nc2cc([C@H]3CC[C@@H](OC(=O)Oc4ccc([N+](=O)[O-])cc4)C3)nn2C(C)(C)C)ccn1, DIEA, DMSO, 1.71 mM, 100.0 °C, 2.0 h
  ring closure, yield of all isomers: 97%

## C[C@@H]1NC(=O)O[C@H]2C[C@H](C[C@H]2F)c2cc(n(C(C)(C)C)n2)Nc2ccnc(c2)OCCC1(F)F
[2]; from C[C@H](N)C(F)(F)CCOc1cc(Nc2cc([C@H]3C[C@@H](F)[C@@H](OC(=O)Oc4ccc([N+](=O)[O-])cc4)C3)nn2C(C)(C)C)ccn1, DIEA, DMSO, 3.13 mM, 100.0 °C, 12.0 h
  ring closure, yield of all isomers: 88%

## C[C@H](N)C(F)(F)CCOc1cc(Nc2cc([C@H]3C[C@@H](F)[C@@H](OC(=O)Oc4ccc([N+](=O)[O-])cc4)C3)nn2C(C)(C)C)ccn1
[1]; 18-membered ring, DIEA, DMSO, 3.13 mM, 100.0 °C
  ring closure, isolated yield: 88%

## C[C@H](N)C(F)CCOc1cc(Nc2cc([C@H]3CC[C@@H](OC(=O)Oc4ccc([N+](=O)[O-])cc4)C3)nn2C(C)(C)C)ccn1 (stereo partly shown)
[1]; 18-membered ring, DIEA, DMSO, 1.71 mM, 100.0 °C
  ring closure, isolated yield: 97%

## C[C@H](N)CCCOc1cc(Nc2cc([C@H]3CC[C@@H](OC(=O)Oc4ccc([N+](=O)[O-])cc4)C3)nn2C(C)(C)C)ccn1
[1]; 18-membered ring, DIEA, THF, 3.53 mM, 50.0 °C
  ring closure, isolated yield: 84.8%

## C[C@H](N)CCCOc1nccc(Nc2cc([C@H]3CC[C@@H](OC(=O)Oc4ccc([N+](=O)[O-])cc4)C3)nn2C(C)(C)C)n1
[1]; 18-membered ring, DIEA, DMSO, 1.79 mM, 80.0 °C
  ring closure, isolated yield: 93%

## C[C@H]1CC(F)(F)COc2cc(ccn2)Nc2cc(nn2C(C)(C)C)[C@H]2CC[C@H](C2)OC(=O)N1
[2]; from C[C@H](N)CC(F)(F)COc1cc(Nc2cc([C@H]3CC[C@@H](OC(=O)Oc4ccc([N+](=O)[O-])cc4)C3)nn2C(C)(C)C)ccn1, DIEA, THF, 1.83 mM, 80.0 °C, 12.0 h
  ring closure, yield of all isomers: 66.2%

## C[C@H]1CC/C=C/c2cc(ccn2)Nc2cc(nn2C(C)(C)C)[C@H]2CC[C@H](C2)OC(=O)N1
[2]; from C[C@H](N)CC/C=C/c1cc(Nc2cc([C@H]3CC[C@@H](OC(=O)Oc4ccc([N+](=O)[O-])cc4)C3)nn2C(C)(C)C)ccn1, DIEA, THF, 1.6 mM, 60.0 °C, 2.0 h
  ring closure, yield of all isomers: 93.9%

## C[C@H]1CCCC(F)(F)c2cc(ccn2)Nc2cc(nn2C(C)(C)C)[C@H]2CC[C@H](C2)OC(=O)N1
[2]; from C[C@H](N)CCCC(F)(F)c1cc(Nc2cc([C@H]3CC[C@@H](OC(=O)Oc4ccc([N+](=O)[O-])cc4)C3)nn2C(C)(C)C)ccn1, DIEA, THF, 1.33 mM, 25.0 °C, 3.0 h
  ring closure, yield of all isomers: 99.3%

## C[C@H]1CCCCc2cc(ccn2)Nc2cc(nn2C(C)(C)C)[C@H]2CC[C@H](C2)OC(=O)N1
[2]; from C[C@H](N)CCCCc1cc(Nc2cc([C@H]3CC[C@@H](OC(=O)Oc4ccc([N+](=O)[O-])cc4)C3)nn2C(C)(C)C)ccn1, DIEA, THF, 0.92 mM, 20.0 °C, 4.0 h
  ring closure, yield of all isomers: 91.9%

## C[C@H]1CCCOc2cc(c(F)cn2)Nc2cc(nn2C(C)(C)C)[C@H]2CC[C@H](C2)OC(=O)N1
[2]; from C[C@H](N)CCCOc1cc(Nc2cc([C@H]3CC[C@@H](OC(=O)Oc4ccc([N+](=O)[O-])cc4)C3)nn2C(C)(C)C)c(F)cn1, DIEA, THF, 1.71 mM, 25.0 °C, 3.0 h
  ring closure, yield of all isomers: 99.9%

## C[C@H]1CCCOc2cc(cc(F)n2)Nc2cc(nn2C(C)(C)C)[C@H]2CC[C@H](C2)OC(=O)N1
[2]; from C[C@H](N)CCCOc1cc(Nc2cc([C@H]3CC[C@@H](OC(=O)Oc4ccc([N+](=O)[O-])cc4)C3)nn2C(C)(C)C)cc(F)n1, DIEA, THF, 1.71 mM, 25.0 °C, 3.0 h
  ring closure, yield of all isomers: 97.8%

## C[C@H]1CCCOc2cc(ccn2)Nc2cc(nn2C(C)(C)C)[C@H]2CC[C@H](C2)OC(=O)N1
[2]; from C[C@H](N)CCCOc1cc(Nc2cc([C@H]3CC[C@@H](OC(=O)Oc4ccc([N+](=O)[O-])cc4)C3)nn2C(C)(C)C)ccn1, DIEA, THF, 3.53 mM, 50.0 °C, 12.0 h
  ring closure, yield of all isomers: 84.8%

## C[C@H]1CCCOc2nccc(n2)Nc2cc(nn2C(C)(C)C)[C@H]2CC[C@H](C2)OC(=O)N1
[2]; from C[C@H](N)CCCOc1nccc(Nc2cc([C@H]3CC[C@@H](OC(=O)Oc4ccc([N+](=O)[O-])cc4)C3)nn2C(C)(C)C)n1, DIEA, DMSO, 1.79 mM, 80.0 °C, 3.0 h
  ring closure, yield of all isomers: 93%

## C[C@H]1CCO[C@H](C)c2cc(ccn2)Nc2cc(nn2C(C)(C)C)[C@H]2CC[C@H](C2)OC(=O)N1
[2]; from C[C@H](N)CCO[C@H](C)c1cc(Nc2cc([C@H]3CC[C@@H](OC(=O)Oc4ccc([N+](=O)[O-])cc4)C3)nn2C(C)(C)C)ccn1, DIEA, THF, 0.86 mM, 25.0 °C, 12.0 h
  ring closure, yield of all isomers: 92.1%
